# Patent US20230270764A1, “COMPOSITION COMPRISING CANNABINOIDS, TERPENES, AND FLAVONOIDS FOR TREATING DEPRESSION” (priority 2020, published 2023)
# Assays:
# [1] = tested on: BV2 microglial cells; assay: Poly I:C-induced TNFα release by BV2 microglia; type: cell-based, murine; conditions: 5 and 10 µM
# Method: (§1) The BV2 cells are cultured at 37° C. in a humidified atmosphere with 5% CO2 in high D-glucose (4.5 g/L) Dulbecco’s modified Eagle’s medium (Sigma, Rehovot, Israel) supplemented with 5% heat-inactivated fetal bovine serum, streptomycin (100 µg/ml), and penicillin (100 units/ml) and sodium pyruvate (1 mM; all from Biological Industries Ltd., Kibbutz Beit Haemek, Israel). 24 hours before experiments with LPS stimulation, the BV2 cells are split into 24 well plates, 2×10^5 cells per well, covered with 1 ml of growth medium and allowed to attach overnight. 24 hr before experiments with α-synuclein, the BV2 cells are split into 96-well plates, 50,000 (5×10^4) cells per well, covered with 200 µl of growth medium and allowed to attach overnight. […]
# [2] = tested on: BV2 microglial cells; assay: Poly I:C-induced IL-6 release by BV2 microglia; type: cell-based, murine; conditions: 10 µM
# Method: as §1
# [3] = tested on: BV2 microglial cells; assay: α-synuclein-induced TNFα secretion by BV2 microglia cell cultures; type: cell-based, murine
# Method: The BV2 cells are cultured at 37° C. in a humidified atmosphere with 5% CO2 in high D-glucose (4.5 g/L) Dulbecco’s modified Eagle’s medium (Sigma, Rehovot, Israel) supplemented with 5% heat-inactivated fetal bovine serum, streptomycin (100 µg/ml), and penicillin (100 units/ml) and sodium pyruvate (1 mM; all from Biological Industries Ltd., Kibbutz Beit Haemek, Israel). 24 hours before experiments with LPS stimulation, the BV2 cells are split into 24 well plates, 2×10^5 cells per well, covered with 1 ml of growth medium and allowed to attach overnight. 24 hr before experiments with α-synuclein, the BV2 cells are split into 96-well plates, 50,000 (5×10^4) cells per well, covered with 200 µl of growth medium and allowed to attach overnight. Cultures of BV2 microglia cells are first treated by an individual cannabinoid, or terpene or flavonoid selected from: Cannabidiol (CBD), Δ-9-tetrahydrocannabinol (THC), Δ-8-tetrahydrocannabinol (THC), cannabigerol (CBG), cannabichromene (CBC), cannabigerolic acid (CBGA), Cannabidiolic acid (CBDA), THC acid (THCA), cannabichromenic Acid (CBCA), Cannabidivarin (CBDV), tetrahydrocannabivarin (THCV), Cannabichromevarin (CBCV), Cannabichromerocin ([…]), Cannabivarin (CBV), Cannabicitran (CBT), Cannabinol (CBN), Cannabicyclol (CBL), Cannabigerorcin (CBGO), Cannabinodiol (CBND), β-caryophyllene, β-elemene, β-myrcene, linalool, α-pinene, β-pinene, eucalyptol, alpha-terpineol, valencene, geraniol (lemonol), bisabolol, nerolidol, ocimene, terpinolene, humulene, α-terpinene, camphene, fenchol, α-phellandrene, Δ3-carene, γ-cardinene, sabinene, limonene, β-amyrin, cycloartenol, cannflavin A, cannflavin B, kaempferol, quercetin, luteolin, apigenin, canniprene, orientin, β-sitosterol, vitexin, isovitexin, and chrysin. Additional cultures of BV2 microglia cells are treated by an individual cannabinoid, with at least one additional cannabinoid, and/or terpene, and/or flavonoid, and/or celecoxib. Additional cultures are exposed to the vehicle of these compounds (cremophor, ethanol and PBS, 1:1:18 (v/v/v)) (FIG. 2A). In some studies, cultures of BV2 microglia cells are treated by a specific whole plant cannabis extract, with or without supplementation with cannabinoid(s), and/or terpene(s) and/or flavonoid(s), and/or celecoxib (FIG. 2B).
# For each individual cannabinoid mentioned above, 3-4 concentrations are used, ranging from 0.1 to 10 µM. For ultra-low dose Δ9-THC the concentration used is 0.01 µM. For each individual terpene or flavonoid mentioned above, 3-4 concentrations are used, ranging from 1 to 50 µM. For celecoxib, 3-4 concentrations are used, ranging from 0.1 to 10 µM. Two hours following the treatment, the cultures are exposed to one of the following microglia stimulators: LPS (Sigma L2630; Escherichia coli serotype O111:B4) is dissolved in D-PBS (Sigma, D8537) to a pre-stock concentration of 1 mg/ml, aliquoted and stored at -80° C. Stock solution of LPS at 10 ug/ml is prepared using sterile D-PBS, followed by filtering via 0.22 µm filter membrane, aliquoting and storing in -20° C. LPS is applied into the cell medium at a final concentration of 100 ng/ml. Poly I:C (Sigma, P1530) was first dissolved in sterile, molecular grade water to the concentration of 10 mg/ml (following the manufacturer’s instructions). This stock solution was further diluted to the concentration of 1 mg/ml in sterile PBS, and the aliquots stored in -20 °C. […] To induce oligomerization, α-Synuclein solution is placed for 24 hours on a shaker with agitation of 80 rpm and at 37° C.
# [4] = tested on: LPS-injected mice; assay: Social exploration test in the LPS-induced model of depression; type: in vivo
# Text: In a preliminary screening experiment, subjects were 4-6 months-old male C57BL/6 (Jackson Laboratories, USA). Animals were housed 2-3/cage, kept in an air-conditioned room (23+°C) and given ad libitum access to food and water. The mice were kept in a reversed light/dark cycle, with lights off from 7 a.m. to 7 p.m. All experiments were approved by the Hebrew University of Jerusalem Ethics Committee on Animal Care and Use. In preparation for the Sucrose Preference Test, mice were habituated 2-3 times to sucrose drinking, by exposing them overnight to two graduated tubes, one containing water and the other containing sucrose solution (1%, w/v). Water and sucrose consumption were measured, and sucrose preference was computed by dividing the amount of sucrose consumed by drinking (ml sucrose) by the total drinking volume (ml of sucrose + water). One day later, the weight of the mice and the food in their cages was weighed for later analysis of food consumption and body weight changes. […] In this test, the measured locomotor activity reflects not only motor capacity, but particularly the innate motivation for spatial exploration (which increases the distance travelled) and the anxiety level (which reduces the distance travelled, in general, and particularly the distance and time spent in the center of the open field). […] The distance travelled (cm), the velocity of the movement (cm/second), the time spent (seconds), distance travelled (cm) in the center area of the arena, as well as the number of entries from the perimeter area into the center of the arena were automatically measured over a 4-minute period, using EthoVision XT video tracking system and software (Noldus, The Netherlands). […] Social exploration, defined as the time of near contact between the nose of the subject and the juvenile in the small cage was recorded for 4 min, using computerized in-house software. Sucrose preference was assessed, as described above, between 8 to 27 hr post LPS injection. […]
structure (smiles),measurement,setting,value
"C=C(C)[C@@H]1CCC(C)=C[C@H]1c1c(O)cc(CCCCC)cc1O [CBD, cannabidiol]",Poly I:C-induced TNFα release,[1],significantly decreased
same,Poly I:C-induced IL-6,[2],markedly decreased
same,secretion of TNFα in cells incubated with α-synuclein aggregates/fibrils,"[3]; Example 3, 10 µM",reduced
same,release of TNFα by microglia incubated with α-synuclein aggregates/fibrils,"[3]; Example 8, CBD by itself 1, 2.5 or 5 µM","neither CBD (1, 2.5, or 5 µM) nor celecoxib (1 or 2.5 µM) by themselves affected the release of TNFα"
same,IC50,"[3]; Mus musculus, BV-2, read-out: IC50, α-synuclein-induced TNFα release, Example 8 (FIG. 9B), by itself",5.1 µM
same,social exploration vs LPS-injected vehicle-treated mice,"[4]; adult (6-9 months-old) male mice, acute CBD",significantly increased social interest
same,social exploration,"[4]; adult and young adult female mice, acute CBD, saline or LPS",None of these parameters was influenced by treatment with CBD
same,LPS-induced reduction in social exploration,"[4]; young-adult male mice, CBD 30 mg/kg i.p. 3 consecutive days",no effects
